According to PMC9229255, “New Cladiellin-Type Diterpenoids from the South China Sea Soft Coral Cladiella krempfi: Structures and Molecular Docking Analysis in EGFRs” (Marine Drugs, 2022):

Tests used:
[1] = target: T1, EGFR (Homo sapiens, UniProt P00533); experiment: EGFR activity assay (kinase inhibition); assay type: biochemical; conditions: concentration 20000 nM; read-out: EGFR inhibitory data, Mean (percentage of inhibition)
Description: Six compounds were screened on EGFRs using staurosporine obtained from MedChemExpress (Cat. No. HY-15141; Lot. No. 41248) as the reference compound. In the bioassay for the EGFRs, testing kinases were performed in 1× kinase base buffer containing 50 mM HEPES (pH 7.5) and 0.0015% Brij-35, and stop buffer containing 100 mM HEPES (pH 7.5), 0.0015% Brij-35, 0.2% Coating Reagent #3, and 50 mM EDTA. For the compound preparing part, compounds were diluted to 50X of the final desired highest inhibitor concentration in the reaction by 100% DMSO, and 100 µL of the compound dilution was transferred to a well in a 96-well plate. Additionally, 100 µL of 100% DMSO was added to two empty wells for a no-compound control and a no-enzyme control in the same 96-well plate, which was marked as the source plate. […]. The compounds were mixed in an intermediate plate for 10 min on a shaker. For the assay plate, 5 µL of each well from the 96-well intermediate plate was transferred to a 384-well plate in duplicates. For the kinase reaction, 2.5× enzyme solution and 2.5× peptide solution were prepared. Moreover, 5 µL of compound were settled in the assay plate with 10% DMSO. Additionally, 10 µL of 2.5× enzyme solution was added to each well of the 384-well assay plate that was incubated at room temperature for 10 min. Then, 10 µL of 2.5× peptide solution was added to each well of the 384-well that was incubated at 28 °C for 30 min and stopped by 25 µL stop buffer. The percentage of inhibition was estimated using max-conversion divided by the max-min, and inhibition values were converted by convert conversion values from the caliper program. IC50 values were obtained from fitting the data in the XLfit excel add-in version 4.3.1.

[2] = tested on: mouse lymphocytic leukemia L1210 cells; parameters: method as in doi:10.1021/jo00269a027; conditions: as low as; cited from earlier work
[3] = target: T1, EGFR; parameters: method as in PMID 27940262; conditions: read-out: EGFR inhibitory activity IC50; cited from earlier work

T1 sequence (P00533 25-1210): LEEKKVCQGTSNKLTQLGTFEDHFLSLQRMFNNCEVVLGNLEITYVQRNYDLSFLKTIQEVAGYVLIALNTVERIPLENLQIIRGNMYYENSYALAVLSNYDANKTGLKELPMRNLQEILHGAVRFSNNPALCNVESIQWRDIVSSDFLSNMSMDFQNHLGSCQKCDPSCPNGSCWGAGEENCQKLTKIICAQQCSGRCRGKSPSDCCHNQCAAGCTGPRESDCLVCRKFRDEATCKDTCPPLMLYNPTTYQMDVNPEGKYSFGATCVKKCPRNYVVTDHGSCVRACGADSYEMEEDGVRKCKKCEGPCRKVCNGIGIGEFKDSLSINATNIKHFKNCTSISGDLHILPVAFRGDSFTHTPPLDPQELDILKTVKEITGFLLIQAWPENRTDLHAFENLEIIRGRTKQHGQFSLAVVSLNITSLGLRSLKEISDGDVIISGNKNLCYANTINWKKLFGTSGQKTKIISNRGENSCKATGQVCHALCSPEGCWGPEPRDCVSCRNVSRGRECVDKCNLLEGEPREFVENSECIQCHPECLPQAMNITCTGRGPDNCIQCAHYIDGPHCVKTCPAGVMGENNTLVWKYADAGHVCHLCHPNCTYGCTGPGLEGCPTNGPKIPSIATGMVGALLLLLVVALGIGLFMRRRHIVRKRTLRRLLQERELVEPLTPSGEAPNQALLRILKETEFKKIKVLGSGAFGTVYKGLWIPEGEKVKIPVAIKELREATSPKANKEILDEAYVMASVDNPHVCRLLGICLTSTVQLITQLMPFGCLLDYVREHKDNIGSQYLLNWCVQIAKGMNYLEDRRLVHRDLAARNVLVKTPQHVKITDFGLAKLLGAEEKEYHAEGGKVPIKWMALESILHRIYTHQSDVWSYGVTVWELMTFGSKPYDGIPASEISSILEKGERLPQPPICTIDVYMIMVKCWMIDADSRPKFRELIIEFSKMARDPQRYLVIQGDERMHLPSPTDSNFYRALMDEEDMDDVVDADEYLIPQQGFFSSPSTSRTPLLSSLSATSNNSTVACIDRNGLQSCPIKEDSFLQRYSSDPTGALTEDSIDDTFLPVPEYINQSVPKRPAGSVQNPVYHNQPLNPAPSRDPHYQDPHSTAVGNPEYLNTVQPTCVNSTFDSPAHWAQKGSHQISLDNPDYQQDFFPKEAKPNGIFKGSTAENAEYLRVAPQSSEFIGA

Row | Compound | inhibition at 20 µM [1] | further results
1 | C=C1CC[C@H](C(C)C)[C@@H]2[C@H]1[C@H]1C[C@](C)(O)[C@@H](O)CC[C@@](C)(OC(=O)CCC)[C@@H]2O1 [Compound 6, litophynin E] | -4.9% | 
2 | C=C1CC[C@H](C(C)C)[C@@H]2[C@H]1[C@H]1C[C@](C)(O)[C@@H](O)CC[C@@](C)(O)[C@@H]2O1 [sclerophytin A] |  | concentration showing significant cytotoxicity [2]: 1 ng/mL
3 | CCCC(=O)O[C@]1(C)CC[C@H](C(C)C)[C@@H]2[C@H]1[C@H]1C[C@](C)(O)[C@@H](O)CC[C@@](C)(OC(C)=O)[C@@H]2O1 [pachycladin A] |  | IC50 [3]: 0.5 µM

The next lines start with results.

Row | inhibition at 20 µM [1] | Compound | further results
4 | -9.9% | C=C1C(O)CCC(C)(OC(=O)CCC)C2OC(C1OC(C)=O)C1C(=C)C(O)CC(C(C)C)C12 (stereo not drawn) [Compound 1, litophynol C] | melting point: 183 to 184 °C
5 | -3.4% | C=C1CC[C@H](C(C)C)[C@@H]2[C@H]1[C@@H]1O[C@H]2[C@](C)(OC(=O)CCC)CC[C@H](O)C(=C)[C@H]1OC(=O)CCC [Compound 4, 8-butyryl-litophynol A] | 
6 | -7.5% | C=C1CC[C@H](C(C)C)[C@@H]2[C@H]1[C@@H]1O[C@H]2[C@](C)(OC(=O)CCC)CC[C@H](OC)[C@@](C)(O)[C@H]1O [Compound 5, kremfielin B] | 
7 | -3.8% | C=C1CC[C@H](C(C)C)[C@@H]2[C@H]1[C@@H]1O[C@H]2[C@](C)(OC(=O)CCC)CC[C@H](O)C(=C)[C@H]1O [Compound 3, litophynol A] | 
8 | -12.5% | C=C1C(OO)CCC(C)(OC(=O)CCC)C2OC(C1OC(C)=O)C1C(=C)C(O)CC(C(C)C)C12 (stereo not drawn) [Compound 2, litophynol D] | 
